# In US5648244A, “Production, purification, cleavage and use of fusion peptides” (President and Fellows of Harvard College, priority 1993, dated 1997):
# Tested on: yeast MATa/sst1Δ strain EY957
# Assay: Yeast cell arrest (halo) assay
# Type: cell-based
# From the text: The mature wild-type α-Factor peptide is a 13 amino acid pheromone secreted by type […] yeast cells, which upon binding to the α-Factor receptor transmits a signal to an internally located G-protein. Once activated, this G protein triggers a series of intracellular events which lead to cellular differentiation (Elion et al., Cell, 60:649-664 (1990)). In the presence of external α-Factor, yeast cells in the early G1 phase of growth will undergo cell cycle arrest. The bioactivity of each recombinant α-Factor could easily be determined in halo assays as a region of low cell density surrounding a central disk spotted with α-Factor (FIG. 5).
# Lawns of yeast MATa/sst1Δ strain EY957 were grown on YPD plates and were tested for α-Factor sensitivity as previously described (Elion et al., Cell, 60:649-664 (1990)). α-Factor peptides were dissolved in DMSO and spotted on sterile 6.5 mm paper disks. Peptide amounts were as follows: Wild-type α-Factor (αFWT)-595 pmoles; αI13-homoserine-lactone (αI13-HSl)-6,850 pmoles; αI13-homoserine (αI13-HS)-1,130 pmoles; αI13-homoserine-amide (αI13-HSA)-2,820 pmoles. The zones of inhibition (z.o.i.) for each peptide is the diameter of the low cell density region. […]
# ^c The zone of inhibition in mm (z.o.i.) was measured for each series […]
sequence,measurement,setting,value
"WHWLQLKPGQPMY [αFWT, Wild-type α-factor from Sigma, 13 amino acid yeast pheromone, reference compound]",CA50 (cell arrest50),amount of peptide per disk required to cause 50% of cell arrest,74 ± 5 pmol
same,z.o.i.int (y-intercept of upper asymptote of zone of inhibition curve),"relative maximal effect, z.o.i. vs pmoles spotted per 6.5 mm disk",29 mm
